Results as given in patent US20100029654A1, “CARDIOVASCULAR COMPOSITIONS AND USE OF THE SAME FOR THE TREATMENT OF ALZHEIMER'S DISEASE” (MOUNT SINAI SCHOOL OF MEDICINE, priority 2006, published 2010).

What was measured:
Aβ1-42 [1] = test: Aβ1-42 content in conditioned medium of primary cortico-hippocampal neuron cultures from Tg2576 mice (ELISA; primary and secondary dose-response screening); assay type: cell-based, mouse; details: drug 100 μM
Method in brief: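 This screen tested cardiovascular drugs for Aβ-lowering in Tg2576 embryonic cortico-hippocampal neuron cultures plated at 1.0×10^5 cells per well in poly-D-lysine-coated 96-well plates with Neurobasal/B27 medium. Drugs at 100 μM were added directly to the medium in duplicate, with 1% DMSO alone as the control. Conditioned medium was then collected, and its Aβ1-42 level was quantified with BioSource ELISA kits.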

Aβ peptides = test: Aβ peptide profile in the brain by IP-MS; details: Tg2576, 10 or 60 mg/Kg/day, 3 weeks
Tg2576 mice [2] = test: blood pressure (systolic, diastolic, MAP) by tail-cuff; assay type: in vivo, mouse; details: Tg2576, 3 weeks
Protocol: FIG. 1 Tg2576 mice are characterized by normal blood pressure under basal conditions. Baseline measurements of systolic, diastolic blood pressure, and mean arteriole blood pressure (MAP) in ˜11 month old female Tg2576 mice. Strain-, age-, gender-matched WT mice were measured using a commercial blood pressure analysis system designed specifically for small rodents (Hatteras Instruments, NC). Following manufacturer's instruction, mice were temporarily immobilized in a restraining chamber and an inflated tail-cuff wrapped around the tail was used to measure the systolic pressure, diastolic pressure, and MAP. Each blood pressure determination was calculated as the mean of 10 individual measurements per animal (n=6-10 group).
FIG. 6A-C show body weight of mice in response to ˜3 weeks of treatment. […] FIG. 6D-F show the assessment of systolic, diastolic, and MAP blood pressure in Tg2576 mice in response to drug doses below or within the range of those prescribed in hypertension. Blood pressure measurements were conducted using a commercial blood pressure analysis system designed specifically for small rodents (Hatteras Instruments, NC). Following manufacturer's instruction, mice were temporarily immobilized in a restraining chamber and an inflated tail-cuff wrapped around the tail was used to measure pressures. Each blood pressure determination was calculated as the mean of 10 individual measurements per animal. In A-F, values represent mean±SEM values, n=3-5 mice per group. 2-tailed t-test: *P<0.05.
Assessment of blood pressure and glucose utilization. Mouse blood pressure was routinely recorded using a commercial blood pressure analysis system designed specifically for small rodents (Hatteras Instruments, NC). […] Briefly, mice were given a single dose of glucose post-prandially (i.p. 2 g/kg body weight). Blood was collected from the tail-vein periodically over a 2-hour period. Blood glycemic content was assessed using the OneTouch LifeScan System, (LifeScan, Milpitas, Calif.) following the manufacturer's instruction.

[3] = propranolol-HCL detection in brain and plasma (LC-MS); assay type: in vivo, mouse; details: Tg2576, 10 mg/kg/day in drinking water, three weeks
Protocol: In this short-term dosing study, Tg2576 mice were treated with propranolol-HCL for three-weeks at a concentration ˜3 fold lower than used for treatment of hypertension (10 mg/kg/day delivered in the drinking water). At the time of sacrifice, emicerebellum (pool from N=3 per group) was homogenized 0.4 M perchloric acid, centrifuged (3,000×g; 15 min), and the […] layer evaporated by heating (Botterblom et al., 1993), while the residual diethyl-ether and acidic aqueous layer was used for analysis. Plasma from propranolol-HCL treated mice (pooled, n=3 per group) was extracted using a modified protocol (Martin et al., 2004) mixing equal volumes of plasma in 0.1% NaOH. Propanolol-HCL was then extracted by ethyl acetate and centrifuged. The acidic […] layers were then dried, samples were analyzed by tandem liquid chromatography—mass spectrometry, and concentration was determined against an internal standard, in a range of quantification of n between 1-1,000 ng/ml.

Aβ1-40 = Aβ1-40 content in conditioned medium of primary cortico-hippocampal neuron cultures from Tg2576 mice (ELISA; primary and secondary dose-response screening); assay type: cell-based, mouse; details: for Ab1-40 (% of ctl): drug 100 μM
Method in brief: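 Primary cortico-hippocampal neurons from embryonic Tg2576 mice were plated at 1.0×10^5 cells per well on poly-D-lysine-coated 96-well plates in Neurobasal with 2% B27, 0.5 mM L-glutamine and 1% penicillin-streptomycin. Cultures received drug in 1% DMSO, and Aβ1-40 in the conditioned medium was measured by BioSource ELISA 24 hours after treatment, relative to vehicle controls.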

Tg2576 mice [4] = test: tolerability: body weight, fluid consumption, glucose tolerance
Aβ1-42 [5] = details: Tg2576, short-term dosing, subclinical or clinical concentrations
Protocol: Cognitive behavioral function was assessed using the Morris water maze (MWM). After completion of the MWM test, blood pressure measurements were quantified as describe in FIG. 1 legends. Following MWM testing and blood pressure assessment, mice were sacrificed for neuropathological assessment. […] C, (inset), total immunoreactive APP content normalized to β-actin signal. In C-D, bar graphs represent group mean±SEM, n=6-10 mice per group.
(§1) FIG. 7. […] Bar graphs represent group mean±SEM, n=3 mice per group. 2-tailed t-test: *P<0.05.
(§2) Assessment of AD-type amyloid neuropathology in Tg2576 mice. For quantitative assessment of Aβ peptide in the brain, frozen pulverized tissue was homogenized in 5.0 M guanidine buffer, diluted (1:10) in phosphate-buffered saline containing 0.05% (v/v) Tween-20 and 1 mM Pefabloc protease inhibitors (Roche Biochemicals, Indianapolis, Ind.), and centrifuged for 20 min at 4° C. […] Serum Aβ content was analyzed using the same ELISA Kit, following manufacturer instructions.

Aβ1-42 and Aβ1-40 = Aβ1-42 and Aβ1-40 content in peripheral blood (plasma, serum) by ELISA; assay type: in vivo, mouse
Protocol: as §1, §2

γ-secretase = details: Tg2576, propranolol-HCL, neocortex
Protocol: (§3) Brain samples were homogenized in supplied buffers. Homogenate was then added to secretase-specific APP peptide conjugated to the reporter molecules EDANS and DABCYL. […] Cleavage of APP peptide by secretase physically separates the EDANS and DABCYL reporter molecules, allowing for the release of a fluorescent signal. The level of secretase enzymatic activity is proportional to the fluorometric reaction in the homogenate (R & D Systems).

β-secretase = β-secretase (Mus musculus, UniProt P56818); details: Tg2576, propranolol-HCL, neocortex
β-secretase, sequence (P56818 46-501): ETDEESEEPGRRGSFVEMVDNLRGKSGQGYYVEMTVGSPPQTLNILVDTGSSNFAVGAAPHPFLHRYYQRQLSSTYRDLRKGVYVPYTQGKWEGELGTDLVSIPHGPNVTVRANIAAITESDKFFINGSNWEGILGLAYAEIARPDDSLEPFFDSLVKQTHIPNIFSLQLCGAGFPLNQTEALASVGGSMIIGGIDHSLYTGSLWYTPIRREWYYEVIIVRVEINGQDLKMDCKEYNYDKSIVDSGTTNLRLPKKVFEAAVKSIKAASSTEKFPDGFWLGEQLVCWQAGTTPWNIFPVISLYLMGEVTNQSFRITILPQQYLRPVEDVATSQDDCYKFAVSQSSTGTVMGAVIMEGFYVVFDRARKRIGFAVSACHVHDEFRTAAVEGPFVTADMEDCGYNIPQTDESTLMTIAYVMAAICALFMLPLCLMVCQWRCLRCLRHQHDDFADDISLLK
Protocol: as §3

α-secretase = details: Tg2576, propranolol-HCL, neocortex
Protocol: as §3

[6] = stability of valsartan salt (solid, aqueous; TLC); assay type: physicochemical; details: 50 and 200 mg/L, 3-10 week old solutions, room temperature, dark
Protocol: The solution is cooled to room temperature slowly without external cooling to discourage precipitation of the drug.
The solution was then cooled to room temperature slowly without external cooling to discourage precipitation of the drug. […] Quality was assessed in 3-10 week old solutions stored at room temperature in dark compartments. Drinking solutions for the in vivo treatments were freshly prepared twice a week. Liquid consumption and animal body weight were monitored weekly throughout the study.

[7] = Primary Screening, table sorted by Aβ1-40
[8] = primary screening, Tg2576 neuron cultures, table sorted by Aβ1-42

Compound	Ab1-42 (% of ctl) (Aβ1-42 [1]; [7])	Ab1-42 (% of ctl) (Aβ1-42 [1]; [8])	Aβ1-34, Aβ1-37, Aβ1-38, Aβ1-39, Aβ1-40 in the brain (IP-MS) (Aβ peptides)	Aβ1-42 content in the neocortex (IP-MS) (Aβ peptides)	systolic, diastolic, MAP blood pressure (Tg2576 mice [2]; doses within the range used for hypertension)	systolic, diastolic, MAP blood pressure (Tg2576 mice [2]; doses ~3 fold below the minimal hypertension dose)	level in the cerebellum [3]	Ab1-40 (% of ctl) (Aβ1-40; [7])	reduced Aβ1-40 (Aβ1-40; primary screening, <85% of ctl)	Ab1-40 (% of ctl) (Aβ1-40; [8])	fluid intake (Tg2576 mice [4]; Tg2576, short-term dosing)	tolerability (body weight) (Tg2576 mice [4]; Tg2576, short-term, 3 weeks, doses ~3 fold below or within hypertension range, drinking water)	steady state levels of Aβ1-42 in hippocampal formation or cerebral cortex (Aβ1-42 [5])	plasma Aβ1-42 levels (and Aβ1-40) (Aβ1-42 and Aβ1-40; Tg2576, doses ~3 fold lower than minimal hypertension dose)	plasma Aβ1-42 (and Aβ1-40) (Aβ1-42 and Aβ1-40; Tg2576, within the dosage range prescribed for hypertension)	γ-secretase activity in the brain (γ-secretase)	β-secretase activity in the brain (β-secretase)	α-secretase activity in the brain (α-secretase)	stability of drinking solutions by TLC analysis [6]
CC(C)NCC(O)COc1cccc2ccccc12.Cl (racemic) [Propranolol Hydrochloride (+/−)]	93.4 % of ctl	93.4 % of ctl	dose-dependent reduction of most of the detectable Aβ species	dose dependent decrease in Aβ1-42 content	decreased systolic, diastolic, and MAP blood pressure	did not significantly influence either systolic, diastolic or MAP blood pressure	nM levels	65.2 % of ctl	reduced Aβ1-40	65.2 % of ctl	did not significantly influence the amount of fluid intake	well-tolerated	significantly reduced steady state levels of Aβ1-42	prevented plasma accumulation of Aβ1-42 levels	lowering responses were found	no detectable change	selective decrease in β-secretase activity	no detectable change	–
CCCCC(=O)N(Cc1ccc(-c2ccccc2-c2nnn[nH]2)cc1)[C@H](C(=O)O)C(C)C [Sodium valsartan]	–	–	–	–	–	–	–	–	–	–	–	–	–	–	–	–	–	–	no change in the recovered compound
